Reference: ChEMBL document CHEMBL6103658, “Designing Macrocyclic Kinase Inhibitors Using Macrocycle Scaffold Hopping with Reinforced Learning (Macro-Hop)” (J Med Chem, 2025)
Each block holds one compound with its values, some of them ahead of it.

Legend:
[1] = target: T1, Platelet-derived growth factor receptor alpha (Homo sapiens, UniProt P16234, D842V); test: Inhibition of PDGFR-alpha D842V mutant (unknown origin) using Tyr 04 peptide as substrate incubated for 1 hr in presence of ATP by FRET-based Z'-Lyte assay
T1 sequence (P16234 24-1089 D842V limits assumed): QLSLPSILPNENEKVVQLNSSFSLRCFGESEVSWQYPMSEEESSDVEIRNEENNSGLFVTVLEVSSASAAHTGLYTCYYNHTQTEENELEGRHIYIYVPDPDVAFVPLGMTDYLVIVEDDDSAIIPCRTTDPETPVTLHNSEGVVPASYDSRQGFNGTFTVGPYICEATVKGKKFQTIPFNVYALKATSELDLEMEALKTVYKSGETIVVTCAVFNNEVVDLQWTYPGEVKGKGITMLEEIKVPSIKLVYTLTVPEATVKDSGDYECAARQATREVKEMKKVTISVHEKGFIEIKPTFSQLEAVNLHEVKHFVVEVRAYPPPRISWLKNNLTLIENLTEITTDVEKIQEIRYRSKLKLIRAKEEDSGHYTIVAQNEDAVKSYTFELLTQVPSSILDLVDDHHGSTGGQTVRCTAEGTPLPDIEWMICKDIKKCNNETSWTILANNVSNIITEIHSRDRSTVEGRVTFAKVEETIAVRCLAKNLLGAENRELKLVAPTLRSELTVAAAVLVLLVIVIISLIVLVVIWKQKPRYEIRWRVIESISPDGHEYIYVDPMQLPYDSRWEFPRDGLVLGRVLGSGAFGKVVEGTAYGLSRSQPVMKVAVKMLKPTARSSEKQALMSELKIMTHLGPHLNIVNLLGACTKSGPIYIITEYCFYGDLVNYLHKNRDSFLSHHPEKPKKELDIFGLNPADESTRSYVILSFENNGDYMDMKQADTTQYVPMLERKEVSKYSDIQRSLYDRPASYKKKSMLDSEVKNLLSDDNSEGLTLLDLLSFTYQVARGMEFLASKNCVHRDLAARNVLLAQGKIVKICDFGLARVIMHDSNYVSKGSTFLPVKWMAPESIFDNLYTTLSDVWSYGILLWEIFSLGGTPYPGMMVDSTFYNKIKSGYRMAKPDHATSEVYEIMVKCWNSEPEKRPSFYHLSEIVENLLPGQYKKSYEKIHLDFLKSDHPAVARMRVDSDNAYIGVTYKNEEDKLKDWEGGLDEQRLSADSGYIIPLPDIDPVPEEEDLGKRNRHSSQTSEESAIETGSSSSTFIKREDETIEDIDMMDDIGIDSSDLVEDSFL

[2] = target: T1, Platelet-derived growth factor receptor alpha; test: Inhibition of PDGFR-alpha D842V mutant (unknown origin) expressed in mouse BaF3 cells; format: cell-based
[3] = Induction of apoptosis in mouse BaF3 cells expressing PDGFR-alpha D842V mutant (unknown origin) assessed as late apoptotic cells at 200 nM incubated for 48 hrs by V-PE/7-AAD staining based flow cytometry (reference value: 2.77 %); format: functional
[4] = Induction of cell cycle arrest in mouse BaF3 cells expressing PDGFR-alpha D842V mutant (unknown origin) assessed as accumulation at S phase at 1000 nM incubated for 24 hrs by PI staining based flow cytometry (reference value: 12.00 %); format: functional
[5] = Induction of cell cycle arrest in mouse BaF3 cells expressing PDGFR-alpha D842V mutant (unknown origin) assessed as accumulation at G2/M phase at 1000 nM incubated for 24 hrs by PI staining based flow cytometry (reference value: 34.85 %); format: functional
[6] = Induction of apoptosis in mouse BaF3 cells expressing PDGFR-alpha D842V mutant (unknown origin) assessed as early apoptotic cells at 40 nM incubated for 48 hrs by V-PE/7-AAD staining based flow cytometry (reference value: 4.20 %); format: functional
BaF3 = conditions: Mus musculus, dose <= 1000.0 nM
[7] = Induction of apoptosis in mouse BaF3 cells expressing PDGFR-alpha D842V mutant (unknown origin) assessed as viable cells at 200 nM incubated for 48 hrs by V-PE/7-AAD staining based flow cytometry (reference value: 92.28 %); format: functional; conditions: read-out: Activity
[8] = Induction of cell cycle arrest in mouse BaF3 cells expressing PDGFR-alpha D842V mutant (unknown origin) assessed as accumulation at G0/G1 phase at 200 nM incubated for 24 hrs by PI staining based flow cytometry (reference value: 51.77 %); format: functional
[9] = Induction of apoptosis in mouse BaF3 cells expressing PDGFR-alpha D842V mutant (unknown origin) assessed as early apoptotic cells at 1000 nM incubated for 48 hrs by V-PE/7-AAD staining based flow cytometry (reference value: 4.20 %); format: functional
cells [10] = conditions: Mus musculus, BaF3, 72 h
[11] = Induction of cell cycle arrest in mouse BaF3 cells expressing PDGFR-alpha D842V mutant (unknown origin) assessed as accumulation at G2/M phase at 40 nM incubated for 24 hrs by PI staining based flow cytometry (reference value: 34.85 %); format: functional
[12] = Induction of cell cycle arrest in mouse BaF3 cells expressing PDGFR-alpha D842V mutant (unknown origin) assessed as accumulation at S phase at 200 nM incubated for 24 hrs by PI staining based flow cytometry (reference value: 12.00 %); format: functional
[13] = Induction of apoptosis in mouse BaF3 cells expressing PDGFR-alpha D842V mutant (unknown origin) assessed as necrotic cells at 200 nM incubated for 48 hrs by V-PE/7-AAD staining based flow cytometry (reference value: 0.75 %); format: functional
[14] = Induction of apoptosis in mouse BaF3 cells expressing PDGFR-alpha D842V mutant (unknown origin) assessed as necrotic cells at 1000 nM incubated for 48 hrs by V-PE/7-AAD staining based flow cytometry (reference value: 0.75 %); format: functional
[15] = Induction of apoptosis in mouse BaF3 cells expressing PDGFR-alpha D842V mutant (unknown origin) assessed as late apoptotic cells at 40 nM incubated for 48 hrs by V-PE/7-AAD staining based flow cytometry (reference value: 2.77 %); format: functional
[16] = Inhibition of cell viability of HEK293T cells incubated for 72 hrs by CCK8 assay; format: toxicity, cell-based, HEK-293T; conditions: human
[17] = Induction of cell cycle arrest in mouse BaF3 cells expressing PDGFR-alpha D842V mutant (unknown origin) assessed as accumulation at G2/M phase at 200 nM incubated for 24 hrs by PI staining based flow cytometry (reference value: 34.85 %); format: functional
[18] = Induction of apoptosis in mouse BaF3 cells expressing PDGFR-alpha D842V mutant (unknown origin) assessed as viable cells at 1000 nM incubated for 48 hrs by V-PE/7-AAD staining based flow cytometry (reference value: 92.28 %); format: functional; conditions: read-out: Activity
cells [19] = conditions: Mus musculus, BaF3, 72 h; remark: listed apart in the source
[20] = Induction of apoptosis in mouse BaF3 cells expressing PDGFR-alpha D842V mutant (unknown origin) assessed as necrotic cells at 40 nM incubated for 48 hrs by V-PE/7-AAD staining based flow cytometry (reference value: 0.75 %); format: functional
[21] = Induction of apoptosis in mouse BaF3 cells expressing PDGFR-alpha D842V mutant (unknown origin) assessed as early apoptotic cells at 200 nM incubated for 48 hrs by V-PE/7-AAD staining based flow cytometry (reference value: 4.20 %); format: functional
[22] = Induction of apoptosis in mouse BaF3 cells expressing PDGFR-alpha D842V mutant (unknown origin) assessed as late apoptotic cells at 1000 nM incubated for 48 hrs by V-PE/7-AAD staining based flow cytometry (reference value: 2.77 %); format: functional
[23] = Induction of cell cycle arrest in mouse BaF3 cells expressing PDGFR-alpha D842V mutant (unknown origin) assessed as accumulation at G0/G1 phase at 40 nM incubated for 24 hrs by PI staining based flow cytometry (reference value: 51.77 %); format: functional
[24] = Induction of cell cycle arrest in mouse BaF3 cells expressing PDGFR-alpha D842V mutant (unknown origin) assessed as accumulation at G0/G1 phase at 1000 nM incubated for 24 hrs by PI staining based flow cytometry (reference value: 51.77 %); format: functional
[25] = Induction of apoptosis in mouse BaF3 cells expressing PDGFR-alpha D842V mutant (unknown origin) assessed as viable cells at 40 nM incubated for 48 hrs by V-PE/7-AAD staining based flow cytometry (reference value: 92.28 %); format: functional; conditions: read-out: Activity
[26] = Induction of cell cycle arrest in mouse BaF3 cells expressing PDGFR-alpha D842V mutant (unknown origin) assessed as accumulation at S phase at 40 nM incubated for 24 hrs by PI staining based flow cytometry (reference value: 12.00 %); format: functional

- IC50 [1]: > 10000 nM
- IC50 [2]: > 1000 nM
Compound: Clc1cnc2nc1N1CCC(CC1)NCCCOc1ccc3ncn-2c3c1

- IC50 (cells [10]): 64.1 nM
- IC50 (cells [19]): 27.6 nM
Compound: c1cc2c3nc(ccc3c1)-n1cnc3ccc(cc31)OCCNC1CCN2CC1
- Activity [3]: 2.27%
- Activity [4]: 7.21%
- Activity [5]: 26.13%
- Activity [6]: 3.2%
- inhibition (BaF3): Not active; Less Pronounced As Compared To Avapritinib
- viability at 0.2 µM [7]: 89.4%
- Activity [8]: 60.03%
- Activity [9]: 24.41%
- Activity [11]: 34.25%
- Activity [12]: 7.5%
- Activity [13]: 0.14%
- Activity [14]: 0.07%
- Activity [15]: 2.23%
- IC50 at 72 h [16]: 1050 nM
- Activity [17]: 31.42%
- viability at 1 µM [18]: 68.8%
- Activity [20]: 0.06%
- Activity [21]: 8.22%
- Activity [22]: 6.67%
- Activity [23]: 54.31%
- Activity [24]: 65.32%
- viability at 0.04 µM [25]: 94.5%
- Activity [26]: 9.94%

- IC50 (cells [10]): 407 nM
- IC50 (cells [19]): 23.7 nM
Compound: CC1(COc2ccc3c(c2)ncn3-c2ccc3cccc(N4CCC(N)CC4)c3n2)COC1 [CRENOLANIB]
- IC50 at 72 h [16]: 1680 nM
